These results are taken from patent US7671181B2, “Polynucleotides encoding coccidian parasite casein kinase I, a chemotherapeutic target for antiprotozoal agents” (Merck Sharp & Dohme Corp., priority 2004, dated 2010).

The target in one data set is TgCKIβ (Toxoplasma gondii, UniProt Q6QNM0). In words: Casein kinase assay, recombinant FLAGTgCKIβ. To be noted: recombinant enzyme; read-out: IC50 against TgCKIβ. Format: biochemical. As for the experimental part:
(§1) Protein kinase assays—Casein kinase activity was assayed essentially as described (Donald, R. G. K. et al., 2002, supra) using 96-well phosphocellulose plates (MAPH-NOB, Millipore; Billerica, Mass.) to capture ^33P-phosphorylated peptide or casein substrates. Kinase reactions were carried out in 40 μl volumes containing 25 mM Hepes, pH 7.4, 10 mM MgCl2, 20 mM β-glycerophosphate, 1 mM DTT, 250 μM substrate, 1 mg/mL BSA, 2 μM ATP, and 0.01 μM [γ-^33P]ATP (Perkin-Elmer, 3000 Ci/mmol). […] Casein (5% solution), partially dephosphorylated α-casein and β-casein were obtained from Sigma.
(§2) A variety of commercially available peptide substrates were evaluated. From Calbiochem (San Diego, Calif.): CKI substrate (RRKDLHDDEEDEAMSITA; SEQ ID NO:13); CKII substrate (RRADDSDDDDD; SEQ ID NO:14); Syntide-2 substrate (PLARTLSVAGLPGKK; SEQ ID NO:15); CaM kinase II substrate (281-291) (MHKNETVECLK; SEQ ID NO:16). From Promega: CKI substrate (DDDEESITRR; SEQ ID NO:17) and kemptide (LRRASLG; SEQ ID NO:18). From New England Biolabs (Beverly, Mass.): CKI phosphopeptide substrate (KRRRALS(p)VASLPGL; SEQ ID NO:19), and CKII substrate (RRREEETEEE; SEQ ID NO:20). PKG assays were performed with kemptide as substrate and 10 μM cGMP. CDPK was assayed with Syntide-2 substrate and in the presence of 100 μM CaCl2.
Purification of recombinant CKI enzymes—E. coli strain BL21 Origami™ (Novagen) was transformed with FLAGTgCKIα and FLAGTgCKIβ expression vectors, and colonies were expanded into 250 mL LB cultures grown at 37° C. Expression was induced with 1 mM IPTG once cultures had reached an OD600nm of 0.3-0.5, and the transformed bacteria were harvested 4-6 hours later. Cell pellets were resuspended in 15 mL of lysis buffer containing protease inhibitors and lysates prepared as described by the supplier (Bugbuster™ reagents, Novagen). The concentration of NaCl in the lysate was adjusted to 0.5 M, and 0.5 mL of FLAG-agarose beads were added (Sigma). The mixture was allowed to rock in a Nutator mixer (Becton-Dickinson; San Jose, Calif.) for 2 hours at 4° C. The slurry was then poured into an empty column and the matrix washed with 50 mL of wash buffer (50 mM Tris-HCl, pH 7.4, 0.5M NaCl, 10% glycerol, 1 mM DTT, 1 mM EDTA). Enzyme was eluted with 5 mL of 0.4 mg/mL FLAG peptide (Sigma) in NaCl-free wash buffer and concentrated with a centrifuge filtration unit (Amicon Ultra®, 10 kDa cut-off, Millipore). Protein was measured with a micro-BCA reagent (Pierce) following a TCA-sodium deoxycholate step to remove residual FLAG peptide (Brown et al., 1989, Anal. Biochem. 180:136-139). Using this procedure, and SDS-PAGE analysis, the yield of FLAGTgCKIβ was estimated as ˜200 μg of enzyme with >90% purity. Purification of FLAGTgCKIα was much less efficient with only about 1 μg of ˜10% pure enzyme obtained per 250 mL bacterial culture.
(§3) Preparations of FLAGTgCKIα and FLAGTgCKIβ were purified further on a SMART system FPLC 0.1 mL MonoQ anion exchange column (Pharmacia; New York, N.Y.) equilibrated in buffer A (50 mM Hepes, pH 7.4, 10% glycerol, 1 mM DTT) at room temperature. Samples of FLAG-affinity purified enzyme (10-100 μg) were syringe-passed through a 0.22 μm (pore-size) filter before loading on the column. A linear salt gradient was applied (0-500 mM in 3 mL at 100 μl/min) and 100 μl fractions were collected and analyzed by SDS-PAGE and for CKI activity. Fractions with peak activity were retained for further analysis. The degree of purity of the partially purified FLAGTgCKIα was estimated by densitometry of silver stained SDS-PAGE gels. A recombinant rat CKIδ enzyme used for control purposes was obtained from New England Biolabs.

The next data set has as its target T1, rat CKIδ (Rattus norvegicus, UniProt Q06486).
T1 construct: purchased New England Biolabs
T1 sequence (Q06486 1-317 limits assumed): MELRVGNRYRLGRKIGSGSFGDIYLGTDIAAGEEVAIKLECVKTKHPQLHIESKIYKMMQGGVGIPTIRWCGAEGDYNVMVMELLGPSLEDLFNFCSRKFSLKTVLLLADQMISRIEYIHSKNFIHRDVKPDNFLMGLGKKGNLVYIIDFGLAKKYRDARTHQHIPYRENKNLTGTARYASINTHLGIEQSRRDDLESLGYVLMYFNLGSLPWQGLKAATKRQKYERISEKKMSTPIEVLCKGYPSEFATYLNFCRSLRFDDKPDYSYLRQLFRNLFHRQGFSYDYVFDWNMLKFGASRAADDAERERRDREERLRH
Nature of the data set: Casein kinase assay, recombinant rat CKIδ control enzyme. Format: biochemical. To be noted: read-out: IC50 against rodent CKIδ. As for the experimental part:
(§4) Protein kinase assays—Casein kinase activity was assayed essentially as described (Donald, R. G. K. et al., 2002, supra) using 96-well phosphocellulose plates (MAPH-NOB, Millipore; Billerica, Mass.) to capture ^33P-phosphorylated peptide or casein substrates. Kinase reactions were carried out in 40 μl volumes containing 25 mM Hepes, pH 7.4, 10 mM MgCl2, 20 mM β-glycerophosphate, 1 mM DTT, 250 μM substrate, 1 mg/mL BSA, 2 μM ATP, and 0.01 μM [γ-^33P]ATP (Perkin-Elmer, 3000 Ci/mmol). The reactions were initiated by the addition of enzyme and incubated at room temperature for 60 min. Casein (5% solution), partially dephosphorylated α-casein and β-casein were obtained from Sigma.
as §3, with “A recombinant rat CKIδ enzyme used for control purposes was obtained from New England Biolabs.” left out

In the next data set the target is TgCKIα (Toxoplasma gondii, UniProt Q6QNM1). Nature of the data set: Casein kinase assay, TgCKIα (recombinant FLAGTgCKIα or partially purified native). Further details: other: recombinant or native forms of TgCKIα. Format: biochemical. As for the experimental part:
as §1, §2
(§5) Purification of recombinant CKI enzymes—E. coli strain BL21 Origami™ (Novagen) was transformed with FLAGTgCKIα and FLAGTgCKIβ expression vectors, and colonies were expanded into 250 mL LB cultures grown at 37° C. […] Protein was measured with a micro-BCA reagent (Pierce) following a TCA-sodium deoxycholate step to remove residual FLAG peptide (Brown et al., 1989, Anal. Biochem. 180:136-139). […]
Preparations of FLAGTgCKIα and FLAGTgCKIβ were purified further on a SMART system FPLC 0.1 mL MonoQ anion exchange column (Pharmacia; New York, N.Y.) equilibrated in buffer A (50 mM Hepes, pH 7.4, 10% glycerol, 1 mM DTT) at room temperature. […] A linear salt gradient was applied (0-500 mM in 3 mL at 100 μl/min) and 100 μl fractions were collected and analyzed by SDS-PAGE and for CKI activity. […]

A further data set deals with T. gondii tachyzoites. In words: [3H]-uracil uptake assay of parasite growth inhibition in infected HFF cell monolayers. Format: cell-based, Toxoplasma gondii. An excerpt: Host cells and parasite cultures—RH strain or RH ΔHXGPRT strain tachyzoites of T. gondii were maintained by serial passage in confluent monolayers of human foreskin fibroblasts (“HFF”) as described (Roos, D. S. et al., 1994, Methods Cell Biol. 45:27-63). A modified [^3H]-uracil uptake assay (Pfefferkorn, E. R. and Pfefferkorn, L. C., 1977, J. Protozool. 24:449-453) adapted for use in 96-well scintillation plates (Cytostar-T, Amersham; Piscataway, N.J.) was used to measure parasite growth inhibition. Each well, previously seeded with HFF cells, was inoculated with T. gondii tachyzoites (2×10^4) in 200 μl of growth media containing 2 μCi [5,6]-^3H-uracil (Perkin-Elmer NEN; Boston, Mass.) and serially diluted compound. Following incubation at 37° C. for 36-48 hours, tritium-incorporation into host cell monolayers was directly counted in a microplate scintillation counter (MicroBeta, PerkinElmer-Wallac).

In data set [1] the test system is T. gondii PKG, CKIα and -β, and CDPK1; native E. tenella CKIα. In words: Protein kinase assays, the parasite kinases tested (Table 2 panel). Format: biochemical. As for the experimental part: as §4, §2
In another data set the target is mammalian CDK1 (Homo sapiens, UniProt P06493). To be noted: Knockaert et al., 2002; cited from earlier work.
For the next data set, the target named is mammalian CDK5 (Homo sapiens, UniProt Q00535). The following applies: Knockaert et al., 2002; cited from earlier work.
Data set [2] has as its system CC(C)C[C@H](NC(=O)CNC(=O)[C@@H]1CCCN1C(=O)[C@H](CC(C)C)NC(=O)[C@H](CO)NC(=O)[C@H](C)NC(=O)[C@@H](NC(=O)[C@H](COP(=O)(O)O)NC(=O)[C@H](CC(C)C)NC(=O)[C@H](C)NC(=O)[C@H](CCCNC(=N)N)NC(=O)[C@H](CCCNC(=N)N)NC(=O)[C@H](CCCNC(=N)N)NC(=O)[C@@H](N)CCCCN)C(C)C)C(=O)O. Nature of the data set: Casein kinase assay, TgCKIα (recombinant FLAGTgCKIα or partially purified native). Format: biochemical. To be noted: other: substrate titration, 2 μM ATP; pH 7.4; 37.0 °C. As for the experimental part: as §1
(§6) A variety of commercially available peptide substrates were evaluated. From Calbiochem (San Diego, Calif.): CKI substrate (RRKDLHDDEEDEAMSITA; SEQ ID NO:13); CKII substrate (RRADDSDDDDD; SEQ ID NO:14); Syntide-2 substrate (PLARTLSVAGLPGKK; SEQ ID NO:15); CaM kinase II substrate (281-291) (MHKNETVECLK; SEQ ID NO:16). From Promega: CKI substrate (DDDEESITRR; SEQ ID NO:17) and kemptide (LRRASLG; SEQ ID NO:18). […]
as §5

Substrate in data set [3]: CC(C)C[C@H](NC(=O)CNC(=O)[C@@H]1CCCN1C(=O)[C@H](CC(C)C)NC(=O)[C@H](CO)NC(=O)[C@H](C)NC(=O)[C@@H](NC(=O)[C@H](COP(=O)(O)O)NC(=O)[C@H](CC(C)C)NC(=O)[C@H](C)NC(=O)[C@H](CCCNC(=N)N)NC(=O)[C@H](CCCNC(=N)N)NC(=O)[C@H](CCCNC(=N)N)NC(=O)[C@@H](N)CCCCN)C(C)C)C(=O)O
In words: Casein kinase assay, recombinant FLAGTgCKIβ. Format: biochemical. The following applies: other: substrate titration, 2 μM ATP; pH 7.4; 37.0 °C. As for the experimental part: as §1, §6, §5

mammalian CDK5, sequence (Q00535 whole entry): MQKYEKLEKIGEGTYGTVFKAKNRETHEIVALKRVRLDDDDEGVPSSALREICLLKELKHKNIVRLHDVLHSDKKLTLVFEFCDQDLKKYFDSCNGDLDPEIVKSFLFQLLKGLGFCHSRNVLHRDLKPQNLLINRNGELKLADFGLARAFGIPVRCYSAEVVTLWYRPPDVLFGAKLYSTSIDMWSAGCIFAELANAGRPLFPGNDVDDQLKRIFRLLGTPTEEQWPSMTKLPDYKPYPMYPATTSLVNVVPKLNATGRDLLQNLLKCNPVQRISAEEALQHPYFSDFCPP
mammalian CDK5, sequence (Q15078 99-307 partner limits assumed): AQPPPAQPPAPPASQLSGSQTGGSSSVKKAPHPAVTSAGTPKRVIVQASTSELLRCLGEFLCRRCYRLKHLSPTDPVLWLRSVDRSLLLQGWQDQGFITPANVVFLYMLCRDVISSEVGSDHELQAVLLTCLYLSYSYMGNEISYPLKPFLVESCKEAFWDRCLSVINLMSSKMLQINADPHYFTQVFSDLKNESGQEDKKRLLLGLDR
mammalian CDK1, sequence (P06493 whole entry): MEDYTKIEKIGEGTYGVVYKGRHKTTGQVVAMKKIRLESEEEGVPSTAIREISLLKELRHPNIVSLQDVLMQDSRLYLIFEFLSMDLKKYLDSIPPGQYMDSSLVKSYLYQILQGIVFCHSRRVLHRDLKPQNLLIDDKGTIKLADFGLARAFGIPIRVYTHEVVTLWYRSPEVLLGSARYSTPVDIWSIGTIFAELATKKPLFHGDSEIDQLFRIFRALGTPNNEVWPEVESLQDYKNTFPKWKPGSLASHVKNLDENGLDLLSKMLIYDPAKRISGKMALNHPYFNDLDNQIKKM
mammalian CDK1, sequence (P14635 whole entry partner): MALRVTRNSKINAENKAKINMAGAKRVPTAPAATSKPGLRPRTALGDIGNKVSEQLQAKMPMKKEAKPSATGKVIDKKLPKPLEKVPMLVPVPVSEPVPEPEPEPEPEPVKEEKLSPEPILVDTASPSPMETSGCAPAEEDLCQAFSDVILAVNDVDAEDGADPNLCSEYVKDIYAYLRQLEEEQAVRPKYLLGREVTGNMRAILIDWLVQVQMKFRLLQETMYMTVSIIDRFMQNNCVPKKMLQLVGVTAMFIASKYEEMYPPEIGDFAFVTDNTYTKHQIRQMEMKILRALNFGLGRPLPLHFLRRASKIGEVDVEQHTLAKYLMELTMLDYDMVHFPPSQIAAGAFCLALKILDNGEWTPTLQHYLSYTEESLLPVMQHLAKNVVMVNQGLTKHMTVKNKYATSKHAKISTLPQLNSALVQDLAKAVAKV
TgCKIα, sequence (Q6QNM1 whole entry, looked up): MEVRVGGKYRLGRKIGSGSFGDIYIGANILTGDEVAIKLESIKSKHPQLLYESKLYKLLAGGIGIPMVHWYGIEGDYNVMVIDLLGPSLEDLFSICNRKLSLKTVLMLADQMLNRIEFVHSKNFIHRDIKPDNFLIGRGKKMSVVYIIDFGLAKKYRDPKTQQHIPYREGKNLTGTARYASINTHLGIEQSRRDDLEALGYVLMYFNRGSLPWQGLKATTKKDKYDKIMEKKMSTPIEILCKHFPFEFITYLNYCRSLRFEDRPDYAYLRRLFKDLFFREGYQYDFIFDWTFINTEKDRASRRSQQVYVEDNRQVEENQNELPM

For `NC1=NC(=O)/C(=C2\CCNC(=O)c3[nH]c(Br)cc32)N1` [Hymenialdisine], the half-maximal inhibitory concentration (IC50) – broadly, the midpoint of a concentration-inhibition curve – is 7 to 10 nM at TgCKIβ, 60 nM on rat CKIδ and 7 to 10 nM on TgCKIα.

On to `O=C1Cc2c([nH]c3ccc([N+](=O)[O-])cc23)-c2ccccc2N1` [alsterpaullone], for which the IC50 with T. gondii tachyzoites (Toxoplasma gondii, infected HFF cell monolayers, read-out: IC50, antiparasitic activity in the whole cell assay) was found to be 1200 nM. For the same molecule, in data set [1], the “activity against the parasite kinases tested” value is reported as “Neither kenpaullone nor alsterpaullone showed any activity”. Further, the “potency against mammalian CDK1 relative to kenpaullone” value at mammalian CDK1 is recorded as “at least 10 fold”. In addition, the “potency against mammalian CDK5 relative to kenpaullone” value on mammalian CDK5 is “at least 10 fold”.

Regarding `O=C1Cc2c([nH]c3ccc(Br)cc23)-c2ccccc2N1` [kenpaullone], the “activity against cultured T. gondii parasites” value in the data set with T. gondii tachyzoites (uracil uptake / whole cell assay) was “inactive”. The “activity against the parasite kinases tested” value in [1] was “Neither kenpaullone nor alsterpaullone showed any activity”.

For the molecule TgCKIα (Toxoplasma gondii), the Vmax (as a rule, the top rate of the reaction or transport when substrate is in excess) in data set [2] came out at 26 nmol/min/mg.

B1: TgCKIβ (Toxoplasma gondii) (protein)
chain: MAHHQDTRNHTGVGPSSSIPLKDLKIAGVWKIGRKIGSGSFGDIYKGLNSQTGQEVALKVESTKAKHPQLLYEYKLLKHLQGGTGIAQVFCCETAGDHNIMAMELLGPSLEDVFNLCNRTFSLKTILLLADQFLQRVEYIHSKNFIHRDIKPDNFLLGGAGNQNTIYVIDFGLAKKFRDPKTHQHIPYRENKNLTGTARYASISAHLGSEQSRRDDLEAVGYVLMYFCRGGTLPWQGIKANTKQEKYHKIMEKKMSTPVEVLCKGYPSEFATYLHYCRSLRFEDRPDYAYLKRLFRDLYIKEGYDDSDREFDWTVKLSSRSLGPPSSRAQHVLLSQDTRTRGKRETDRPVAARSGDRERGIHFSNGNVGNPSMATNPGGLSVMVHERTSLVDQGDRGSRETSTRKEDAKDGRWPGGRFSCLPLLCRRSPTKA
Regarding B1, in [3], the Michaelis constant (Km) (in general, the concentration of substrate that gives half-maximal velocity) turned out to be 79 µM and the maximum rate (Vmax) was determined as 37 nmol/min/mg.
